Measurements published in patent US10654890B2, “Cyclic peptide derivative, method for preparing same and composition thereof” (priority 2014, dated 2020).
Counter-ions that a name gives are not always drawn.

Test system: senescence-accelerated model mouse SAMP8
Assay: Step through passive avoidance test
Format: in vivo
Excerpt: As a mouse for an in vivo test of the cyclic peptide derivative, senescence-accelerated model mouse SAMP8 which is used as a cognitive disorder model animal of initial Alzheimer's disease accompanied with aging was selected, and as a control, SAMR1 mouse with normal aging was selected.
19-Week old male mice of SAMR1 and SAMP8 were purchased from Japan SLC, Inc., and divided into 5 groups, i.e., mouse group with normal aging (SAMR1), senescence-accelerated model mouse group (SAMP8), {P8+donepezil hydrochloride 1250 μg/kg/day} group as a positive control, and {P8+cyclic peptide derivative 2.5 μg/kg/day} group and {P8+cyclic peptide derivative 25 μg/kg/day} group as a test group. The animal was individually kept, i.e., one animal per cage, in a room with controlled environment {room temperature: 23±2° C., light and dark cycle: lighting time of 12 hours (time with light: 07:00 to 19:00), time without light: 12 hours}. The test was carried out in a time window of from 13:00 to 18:00 in an incubator with constant temperature and constant humidity (temperature 23±2° C., humidity 50±10%). After 10 days of an acclimation period, all mice were provided with standard meal (MEQ, Oriental Yeast Company) and body weight of the animal was recorded everyday during the entire test period. […]
(3) {P8+donepezil hydrochloride 1250 μg/kg/day} group: As a positive control, donepezil hydrochloride (Sanyo Chemical Laboratories CO., LTD.) was dissolved in MQ and prepared to have a concentration of 1250 μg/kg (bodyweight), and then orally administered to a SAMP8 for 5 weeks by using a gastric sonde. The concentration was accurately calculated based on the bodyweight which has been measured every day. […]
(4) {P8+cyclic peptide derivative 2.5 μg/kg/day} group: As a test group, the cyclic peptide derivative was dissolved in MQ and prepared to have a concentration of 2.5 μg/kg (bodyweight), and then orally administered to a SAMP8 for 5 weeks by using a gastric sonde. The concentration was accurately calculated based on the bodyweight which has been measured every day. […]

Compound | contextual learning ability (latency in post-shock trial) (SAMP8, oral 2.5 μg/kg/day) | contextual learning ability (latency in post-shock trial) (SAMP8, oral 25 μg/kg/day) | latency in post-shock trial (SAMP8, oral 1250 μg/kg/day, compared to SAMP8 not administered with anything, p<0.05)
CCC1(C)Oc2cc(ccc2O)C(O)C(NC)C(=O)NC(C(C)C)C(=O)NC1C(=O)NC(CCC(=O)O)C(=O)O (stereo not drawn) [cyclic peptide derivative] | recovered to the level of a mouse with normal aging | recovered to the level of a mouse with normal aging | 
COc1cc2c(cc1OC)C(=O)C(CC1CCN(Cc3ccccc3)CC1)C2 (stereo not drawn) [donepezil hydrochloride, reference compound] |  |  | short latency in significant sense
